{
  "source": "patent US20250120970A1",
  "about": "“PHARMACEUTICAL COMPOSITION INCLUDING PHTHALAZINONE DERIVATIVE FOR CO-ADMINISTRATION WITH ANTICANCER DRUG” (priority 2022, published 2025)",
  "key": {"[1]": {"system": "MKN45 human gastric cancer xenograft", "experiment": "subcutaneous MKN45 human gastric cancer xenograft model, tumor volume", "settings": "for Tumor volume (Mean ± SEM): Formula 1 HCl 2 mg/kg p.o. QD, irinotecan 5 mg/kg i.v. QW"}, "AGS [2]": {"system": "AGS", "experiment": "MTT assay, oxaliplatin with or without hydrochloride compound of Formula 1", "format": "cell-based, human", "settings": "5 days, oxaliplatin alone or with 1 μM hydrochloride compound of Formula 1", "description": "(§1) Oxaliplatin (M.W. 397.29) was obtained from Sigma Aldrich."}, "SNU-484 [3]": {"system": "SNU-484", "experiment": "MTT assay, oxaliplatin with or without hydrochloride compound of Formula 1", "format": "cell-based, human", "settings": "5 days, oxaliplatin alone or with 1 μM hydrochloride compound of Formula 1", "description": "as §1"}, "SNU-638 [4]": {"system": "SNU-638", "experiment": "MTT assay, oxaliplatin with or without hydrochloride compound of Formula 1", "format": "cell-based, human", "settings": "5 days, oxaliplatin alone or with 1 μM hydrochloride compound of Formula 1", "description": "as §1"}, "SNU-668 [5]": {"system": "SNU-668", "experiment": "MTT assay, oxaliplatin with or without hydrochloride compound of Formula 1", "format": "cell-based, human", "settings": "5 days, oxaliplatin alone or with 1 μM hydrochloride compound of Formula 1", "description": "as §1"}, "[6]": {"system": "five human-derived gastric cancer cell lines (AGS, SNU-668, SNU-216, SNU-484, and SNU-638)", "experiment": "MTT assay, oxaliplatin experiment, summary over the cell lines", "format": "cell-based", "settings": "5 days, oxaliplatin with or without 1 μM hydrochloride compound of Formula 1", "description": "as §1"}, "SNU-484 [7]": {"system": "SNU-484", "experiment": "MTT assay, irinotecan with or without hydrochloride compound of Formula 1", "format": "cell-based", "settings": "Homo sapiens, 120 h, 5 days, irinotecan alone or with 1 μM hydrochloride compound of Formula 1"}, "[8]": {"system": "five human-derived gastric cancer cell lines (AGS, SNU-668, SNU-216, SNU-484, and SNU-638)", "experiment": "MTT assay, irinotecan experiment, summary over the five cell lines", "settings": "5 days, irinotecan with or without 1 μM hydrochloride compound of Formula 1"}, "SNU-638 [9]": {"system": "SNU-638", "experiment": "MTT assay, irinotecan with or without hydrochloride compound of Formula 1", "format": "cell-based", "settings": "Homo sapiens, 120 h, 5 days, irinotecan alone or with 1 μM hydrochloride compound of Formula 1"}, "SNU-216": {"system": "SNU-216", "experiment": "MTT assay, irinotecan with or without hydrochloride compound of Formula 1", "format": "cell-based", "settings": "Homo sapiens, 120 h, 5 days, irinotecan alone or with 1 μM hydrochloride compound of Formula 1"}, "SNU-668 [10]": {"system": "SNU-668", "experiment": "MTT assay, irinotecan with or without hydrochloride compound of Formula 1", "format": "cell-based", "settings": "Homo sapiens, SNU668, 120 h, 5 days, irinotecan alone or with 1 μM hydrochloride compound of Formula 1"}, "AGS [11]": {"system": "AGS", "experiment": "MTT assay, irinotecan with or without hydrochloride compound of Formula 1", "format": "cell-based", "settings": "Homo sapiens, 120 h, 5 days, irinotecan alone or with 1 μM hydrochloride compound of Formula 1"}},
  "note": "Counter-ions that a name gives are not always drawn.",
  "data": [
    {"smiles": "O=C(c1cc(Cc2n[nH]c(=O)c3ccccc23)ccc1F)N1CC(CNC2CC2)C1", "note": "[Comparative Example 4, 4-[3-(3-[(cyclopropylamino)methyl]azetidine-1-carbonyl)-4-fluorobenzyl]phthalazine-1 (2H)-on]", "values": [
      {"measurement": "Tumor volume (Mean ± SEM)", "setting": "[1]; 0 day (grouping date), MKN45 xenograft mice", "result": 156.60, "unit": "mm^3"},
      {"measurement": "Tumor volume (Mean ± SEM)", "setting": "[1]; 3rd day, MKN45 xenograft mice", "result": 190.75, "unit": "mm^3"},
      {"measurement": "Tumor volume (Mean ± SEM)", "setting": "[1]; 7th day, MKN45 xenograft mice", "result": 272.69, "unit": "mm^3"},
      {"measurement": "Tumor volume (Mean ± SEM)", "setting": "[1]; 10th day, MKN45 xenograft mice", "result": 359.75, "unit": "mm^3"},
      {"measurement": "Tumor volume (Mean ± SEM)", "setting": "[1]; 14th day, MKN45 xenograft mice", "result": 461.91, "unit": "mm^3"},
      {"measurement": "Tumor volume (Mean ± SEM)", "setting": "[1]; 17th day, MKN45 xenograft mice", "result": 588.26, "unit": "mm^3"},
      {"measurement": "Tumor growth inhibition (TGI)", "setting": "[1]; 21st day, Formula 1 HCl 2 mg/kg QD, irinotecan 5 mg/kg QW", "result": 19.69, "unit": "%"},
      {"measurement": "Tumor size on 21st day (Mean ± SEM)", "setting": "[1]; 21st day, MKN45 xenograft mice, Formula 1 HCl 2 mg/kg QD, irinotecan 5 mg/kg QW", "result": "727.36 ± 69.46", "unit": "mm^3"},
      {"measurement": "Tumor volume (Mean ± SEM)", "setting": "[1]; 21st day, MKN45 xenograft mice", "result": 727.36, "unit": "mm^3"},
      {"measurement": "T/C", "setting": "[1]; 21st day, treatment vs vehicle control tumor volume", "result": 80.31, "unit": "%"}
    ]},
    {"smiles": "O=C1[O][Pt-2]2([NH2+]C3CCCC[C@H]3[NH2+]2)[O]C1=O", "note": "(stereo partly drawn) [Comparative Example 2, Oxaliplatin]", "values": [
      {"measurement": "IC50", "setting": "AGS [2]", "result": 2.38, "unit": "µM"},
      {"measurement": "IC50", "setting": "SNU-484 [3]", "result": 10.4, "unit": "µM"},
      {"measurement": "IC50", "setting": "SNU-638 [4]", "result": 30.3, "unit": "µM"},
      {"measurement": "IC50", "setting": "SNU-668 [5]", "result": 11.2, "unit": "µM"},
      {"measurement": "cell death (cell viability, FIG. 2)", "setting": "[6]", "result": "exhibited an effect of cell death"}
    ]},
    {"smiles": "CCc1c2c(nc3ccc(OC(=O)N4CCC(N5CCCCC5)CC4)cc13)-c1cc3c(c(=O)n1C2)COC(=O)[C@]3(O)CC", "note": "[Comparative Example 1, Irinotecan hydrochloride]", "values": [
      {"measurement": "IC50", "setting": "SNU-484 [7]", "result": 0.789, "unit": "µM"},
      {"measurement": "cell death (cell viability, FIG. 1)", "setting": "[8]", "result": "exhibited an effect of cell death"},
      {"measurement": "IC50", "setting": "SNU-638 [9]", "result": 0.657, "unit": "µM"},
      {"measurement": "IC50", "setting": "SNU-216", "result": 2.01, "unit": "µM"},
      {"measurement": "IC50", "setting": "SNU-668 [10]", "result": 4.3, "unit": "µM"},
      {"measurement": "IC50", "setting": "AGS [11]", "result": 0.367, "unit": "µM"}
    ]}
  ]
}
